Experimental findings from patent publication US9365566B2 (Takeda Pharmaceutical Company Limited, priority 2012, dated 2016) are described below.

In general, IC50 refers to the midpoint of a concentration-inhibition curve. A low value points to greater potency in that assay.

Each structure is given as a SMILES string.

T1 sequence (Q06187 382-659): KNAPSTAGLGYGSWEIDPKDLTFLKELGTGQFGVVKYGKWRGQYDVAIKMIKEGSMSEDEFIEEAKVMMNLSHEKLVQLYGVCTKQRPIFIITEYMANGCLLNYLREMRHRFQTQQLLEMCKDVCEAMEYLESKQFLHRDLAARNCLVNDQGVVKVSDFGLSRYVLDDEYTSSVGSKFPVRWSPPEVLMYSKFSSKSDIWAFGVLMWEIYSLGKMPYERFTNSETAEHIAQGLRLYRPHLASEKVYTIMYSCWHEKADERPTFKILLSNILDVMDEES

The experiment addresses T1, human BTK (Homo sapiens, UniProt Q06187).
T1 construct: GST (Glutathione-S-Transferase) (cleaved yes); made in house; host or cells: Spodoptera frugiperda Sf9 cells (baculovirus, Bac-to-Bac)
Kind of experiment: BTK inhibition assay: BTK-mediated phosphorylation of FAM-labeled substrate 5-FAM-EEPLYWSFPAKKK-NH2 (Caliper LC-3000). The note with it: pIC50 = -log(IC50), IC50 molar; residues 382 to 659 of human BTK; incubated at room temperature for 60 minutes; larger values represent higher potency. The format is biochemical. The source says: The activity of compounds as BTK inhibitors may be determined by a variety of methods, including in vitro and in vivo methods.
This construct engineers an in-frame translational fusion with the Glutathione-S-Transferase (GST) protein for use in affinity purification. The fusion protein derived from this construct contains a protease recognition sequence to liberate the BTK from the GST affinity tag. High-titer baculoviral stocks, generated using the Bac-to-Bac® system (Invitrogen), are used to express the recombinant protein in Spodoptera frugiperda Sf9 cells in 10 L Wave bags. Recombinant proteins are isolated from cellular extracts by passage over Glutathione Sepharose 4B (GE Healthcare) and the BTK moiety is released from the GST affinity tag by treatment with PreScission protease. The BTK recombinant protein is further purified by size exclusion chromatography (HiLoad 16/60 Superdex 200, GE Healthcare) in a buffer containing 20 mM Hepes (pH 7.4), 50 mM NaCl, 10 mM MgCl2, 0.25 mM TCEP and 0.1 mM EDTA. The purity of the fractions is assessed by SDS PAGE and the peak protein fractions are pooled and concentrated using Amicon Ultra-15 Centrifugal Filter Devices (Millipore).
The inhibitory properties of compounds relative to BTK is determined using a black 384-well-plate format in a buffer which contains 50 mM Hepes, 10 mM NaCl, 10 mM MgCl2, 0.2 mM EDTA, 0.01% Brij35®, 1 mM DTT, and 0.1 mg/mL BSA at pH 7.3. The test compound is prepared in DMSO using 2-fold serial dilutions for 11 data points, which are added to the buffer so that each dilution contains 3% DMSO. […] The reaction mixtures are incubated at room temperature for 60 minutes and then quenched by adding 25 μL of 50 mM EDTA. To quantify the fluorescent-labeled substrate and product following reaction, the test plate is loaded on a Caliper LC-3000, which measures percent of conversion by microfluidic-based separation.
The compounds were tested in accordance with the assay described on page 34 of the specification.
For `Cc1cc2cn[nH]c2cc1-c1cc(N2CCC(O)CC2)cc2c(N)c(C(N)=O)nnc12` [Example 138, 4-amino-6-(4-hydroxypiperidin-1-yl)-8-(5-methyl-1H-indazol-6-yl)cinnoline-3-carboxamide], the IC50 was 12.6 nM.

Compound `Cc1ccc2c(N)c(C(N)=O)nnc2c1-c1ccc2cc[nH]c2c1` [Example 26, 4-amino-8-(1H-indol-6-yl)-7-methylcinnoline-3-carboxamide] showed an IC50 of 158 nM.

With `NC(=O)c1nnc2c(-c3ccc4nc(C5CCCOC5)[nH]c4c3)cccc2c1N` (stereo not shown) [Example 83, 4-amino-8-(2-(tetrahydro-2H-pyran-3-yl)-1H-benzo[d]imidazol-6-yl)cinnoline-3-carboxamide], the IC50 was 794 nM.

Compound `NC(=O)c1nnc2c(-c3ccc4nc(-c5cccs5)[nH]c4c3)cccc2c1N` [Example 79, 4-amino-8-(2-(thiophen-2-yl)-1H-benzo[d]imidazol-6-yl)cinnoline-3-carboxamide] showed an IC50 of 316 nM.

Turning to `Cn1ccc2ccc(-c3cccc4c(N)c(C(N)=O)nnc34)cc21` [Example 9, 4-amino-8-(1-methyl-1H-indol-6-yl)cinnoline-3-carboxamide], the IC50 was 1000 nM.

`Cc1cc(F)c2c(N)c(C(N)=O)nnc2c1-c1ccc2c(c1)CNC2=O` [Example 126, 4-amino-5-fluoro-7-methyl-8-(1-oxoisoindolin-5-yl)cinnoline-3-carboxamide] showed an IC50 of 12.6 nM.

On to `Cc1c(-c2cccc3c(N)c(C(N)=O)nnc23)ccc2c1cnn2C` [Example 30, 4-amino-8-(1,4-dimethyl-1H-indazol-5-yl)cinnoline-3-carboxamide], for which the IC50 was 316 nM. Against the preceding compound, the IC50 is about 25-fold higher.

Turning to `Cc1cc(F)c2c(N)c(C(N)=O)nnc2c1-c1ccc2cn[nH]c2c1` [Example 56, 4-amino-5-fluoro-8-(1H-indazol-6-yl)-7-methylcinnoline-3-carboxamide], 12.6 nM corresponded to half-maximal inhibition (IC50). This IC50 is about 25-fold lower than that of the compound before.

`Cc1ccc2c(N)c(C(N)=O)nnc2c1-c1cnc2ncn(C)c2c1` [Example 97, 4-amino-7-methyl-8-(1-methyl-1H-imidazo[4,5-b]pyridin-6-yl)cinnoline-3-carboxamide] gave an IC50 of 100 nM.

For `Cc1cc(C)c2c(N)c(C(N)=O)nnc2c1-c1ccc2cn[nH]c2c1` [Example 53, 4-amino-8-(1H-indazol-6-yl)-5,7-dimethylcinnoline-3-carboxamide], the IC50 was 50.1 nM.

In the case of `Cn1ncc2cc(-c3c(C(F)(F)F)ccc4c(N)c(C(N)=O)nnc34)ccc21` [Example 35, 4-amino-8-(1-methyl-1H-indazol-5-yl)-7-(trifluoromethyl)cinnoline-3-carboxamide], the IC50 is 79.4 nM. Against the preceding compound, the IC50 is about 1.6-fold higher.

Compound `NC(=O)c1nnc2c(-c3ccc4c(c3)ncn4C3CCCCC3)cccc2c1N` [Example 18, 4-amino-8-(1-cyclohexyl-1H-benzo[d]imidazol-5-yl)cinnoline-3-carboxamide] gave an IC50 of 1260 nM.

`NC(=O)c1nnc2c(-c3ccc4nc(CC5CCOCC5)[nH]c4c3)cccc2c1N` [Example 81, 4-amino-8-(2-((tetrahydro-2H-pyran-4-yl)methyl)-1H-benzo[d]imidazol-6-yl)cinnoline-3-carboxamide] gave an IC50 of 2510 nM.

`CC(C)(C)c1ccc(-c2nc3ccc(-c4cccc5c(N)c(C(N)=O)nnc45)cc3[nH]2)cc1` [Example 117, 4-amino-8-(2-(4-tert-butylphenyl)-1H-benzo[d]imidazol-6-yl)cinnoline-3-carboxamide] showed an IC50 of 79.4 nM.

Compound `COc1cc2[nH]ncc2cc1-c1cccc2c(N)c(C(N)=O)nnc12` [Example 103, 4-amino-8-(6-methoxy-1H-indazol-5-yl)cinnoline-3-carboxamide] gave an IC50 of 3.98 nM. Compared with the last compound, the IC50 is about 20-fold lower.

As to `Cc1ccc2c(N)c(C(N)=O)nnc2c1-c1cc(F)c2nc[nH]c2c1` [Example 101, 4-amino-8-(4-fluoro-1H-benzo[d]imidazol-6-yl)-7-methylcinnoline-3-carboxamide], half-maximal inhibition (IC50) required 31.6 nM.

In turn, `Cc1ccc2c(N)c(C(N)=O)nnc2c1-c1ccc2c(c1)CCNC2=O` [Example 63, 4-amino-7-methyl-8-(1-oxo-1,2,3,4-tetrahydroisoquinolin-6-yl)cinnoline-3-carboxamide] gave a half-inhibitory concentration (IC50) of 25.1 nM.

For the compound `COc1ccc2c(N)c(C(N)=O)nnc2c1-c1ccc2nc[nH]c2c1` [Example 46, 4-amino-8-(1H-benzo[d]imidazol-6-yl)-7-methoxycinnoline-3-carboxamide], inhibition was half-maximal at 63.1 nM (IC50).

Compound `NC(=O)c1nnc2c(-c3ccc4nc(-c5ccc(F)cc5F)[nH]c4c3)cccc2c1N` [Example 118, 4-amino-8-(2-(2,4-difluorophenyl)-1H-benzo[d]imidazol-6-yl)cinnoline-3-carboxamide] had an IC50 of 100 nM. Compared with the last compound, the IC50 is about 1.6-fold higher.

Consider `Cc1ccc2c(N)c(C(N)=O)nnc2c1-c1ccc2c(c1)CN(CCC(C)(C)O)C2=O` [Example 128, 4-amino-8-(2-(3-hydroxy-3-methylbutyl)-1-oxoisoindolin-5-yl)-7-methylcinnoline-3-carboxamide], for which the IC50 is 7.94 nM. This IC50 lies about 13-fold lower than the previous one.

Take `Cc1ccc2c(N)c(C(N)=O)nnc2c1-c1ccc2c(c1)CNC2=O` [Example 124, 4-amino-7-methyl-8-(1-oxoisoindolin-5-yl)cinnoline-3-carboxamide]: half-maximal inhibition (IC50) required 6.31 nM.

`NC(=O)c1nnc2c(N3CCc4[nH]ncc4C3)cccc2c1N` [Example 86, 4-amino-8-(6,7-dihydro-1H-pyrazolo[4,3-c]pyridin-5(4H)-yl)cinnoline-3-carboxamide] had an IC50 of 2000 nM.

Regarding `NC(=O)c1nnc2c(-c3ccc4[nH]ccc4c3)cccc2c1N` [Example 27, 4-amino-8-(1H-indol-5-yl)cinnoline-3-carboxamide], the IC50 was 1580 nM.

`Cc1ccc2c(N)c(C(N)=O)nnc2c1-c1cc(F)c2cn[nH]c2c1` [Example 102, 4-amino-8-(4-fluoro-1H-indazol-6-yl)-7-methylcinnoline-3-carboxamide] had an IC50 of 25.1 nM.

As for `NC(=O)c1nnc2c(-c3ccc4cn[nH]c4c3)c(Cl)ccc2c1N` [Example 54, 4-amino-7-chloro-8-(1H-indazol-6-yl)cinnoline-3-carboxamide], it took 15.8 nM to reach half-maximal inhibition (IC50). This IC50 lies about 1.6-fold lower than the previous one.

For the compound `Cc1ccc2c(N)c(C(N)=O)nnc2c1-c1ccn2cncc2c1` [Example 114, 4-amino-8-(imidazo[1,5-a]pyridin-7-yl)-7-methylcinnoline-3-carboxamide], the IC50 was 3.98 nM.

The compound `Cc1ccc2c(N)c(C(N)=O)nnc2c1-c1ccc2c(cnn2C)c1` [Example 25, 4-amino-7-methyl-8-(1-methyl-1H-indazol-5-yl)cinnoline-3-carboxamide] gave an IC50 of 31.6 nM. Compared with the last compound, the IC50 is about 7.9-fold higher.

With `Cc1cc(F)c2c(N)c(C(N)=O)nnc2c1-c1ccc2[nH]ncc2c1` [Example 60, 4-amino-5-fluoro-8-(1H-indazol-5-yl)-7-methylcinnoline-3-carboxamide], the IC50 is 7.94 nM. This IC50 lies about 4-fold lower than the previous one.

Regarding `CC(C)n1cnc2cc(-c3cccc4c(N)c(C(N)=O)nnc34)ccc21` [Example 17, 4-amino-8-(1-isopropyl-1H-benzo[d]imidazol-5-yl)cinnoline-3-carboxamide], the IC50 is 50100 nM.

On to `NC(=O)c1nnc2c(-c3ccc4[nH]c(=O)[nH]c4c3)cccc2c1N` [Example 14, 4-amino-8-(2-oxo-2,3-dihydro-1H-benzo[d]imidazol-5-yl)cinnoline-3-carboxamide], for which the IC50 was 631 nM.

For `Cc1ccc2c(N)c(C(N)=O)nnc2c1-c1ccc2cncn2c1` [Example 113, 4-amino-8-(imidazo[1,5-a]pyridin-6-yl)-7-methylcinnoline-3-carboxamide], inhibition was half-maximal at 20 nM (IC50). Compared with the last compound, the IC50 is about 32-fold lower.

In turn, `CN1CCc2cc(-c3cccc4c(N)c(C(N)=O)nnc34)ccc21` [Example 7, 4-amino-8-(1-methylindolin-5-yl)cinnoline-3-carboxamide] gave an IC50 of 5010 nM. Against the preceding compound, the IC50 is about 250-fold higher.

For `Cc1cc2cn[nH]c2cc1-c1ccc(F)c2c(N)c(C(N)=O)nnc12` [Example 43, 4-amino-5-fluoro-8-(5-methyl-1H-indazol-6-yl)cinnoline-3-carboxamide], it took 6.31 nM to reach half-maximal inhibition (IC50).

`Cc1ccc2c(N)c(C(N)=O)nnc2c1-c1ccc2cn[nH]c2c1` [Example 28, 4-amino-8-(1H-indazol-6-yl)-7-methylcinnoline-3-carboxamide] gave an IC50 of 7.94 nM. This IC50 and that of the compound before are within 1.5-fold of each other.

For `Cc1ccc2c(N)c(C(N)=O)nnc2c1-c1ccc2c(c1)c(C)nn2C` [Example 36, 4-amino-8-(1,3-dimethyl-1H-indazol-5-yl)-7-methylcinnoline-3-carboxamide], inhibition was half-maximal at 501 nM (IC50). This IC50 is about 63-fold higher than that of the compound before.

As for `NC(=O)c1nnc2c(-c3ccc4c(c3)CC(=O)N4)cccc2c1N` [Example 8, 4-amino-8-(2-oxoindolin-5-yl)cinnoline-3-carboxamide], the IC50 was 1260 nM.

In turn, `Cc1ccc2c(N)c(C(N)=O)nnc2c1-c1ccc2cn(C)nc2c1` [Example 52, 4-amino-7-methyl-8-(2-methyl-2H-indazol-6-yl)cinnoline-3-carboxamide] had an IC50 of 2510 nM.
